Results as given in patent publication US11384060B2, “Amide compounds and use thereof” (ALPHALA CO., LTD., priority 2017, dated 2022).
Read-outs that look alike come from different tables or passages of the source.

Legend:
[1] = target: T1, glucagon receptor (GCGR) overexpressed CHO-K1 cells or human primary hepatocytes (Homo sapiens, UniProt P47871); assay: Glucagon cAMP inhibition assay (Cisbio cAMP Dynamic 2 HTRF); format: cell-based
T1 construct: expressed in transfected cells; host or cells: GCGR overexpressed CHO-K1 cells or human primary hepatocytes (endogenous receptor)
T1 sequence (P47871 26-477): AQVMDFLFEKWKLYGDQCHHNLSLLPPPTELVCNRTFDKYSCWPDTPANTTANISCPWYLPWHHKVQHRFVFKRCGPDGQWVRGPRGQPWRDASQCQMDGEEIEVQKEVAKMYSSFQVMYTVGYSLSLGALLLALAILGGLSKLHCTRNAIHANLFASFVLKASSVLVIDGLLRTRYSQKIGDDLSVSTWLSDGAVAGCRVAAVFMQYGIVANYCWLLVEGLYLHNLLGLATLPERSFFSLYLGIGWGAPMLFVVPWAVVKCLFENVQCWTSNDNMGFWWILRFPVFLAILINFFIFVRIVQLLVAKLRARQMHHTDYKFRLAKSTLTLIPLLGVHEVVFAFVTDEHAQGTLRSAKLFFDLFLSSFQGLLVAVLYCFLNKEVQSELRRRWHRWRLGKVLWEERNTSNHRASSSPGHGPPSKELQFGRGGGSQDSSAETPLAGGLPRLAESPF
Outline: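 HTRF read-out of glucagon-induced cAMP, with IC50 from non-linear regression. Cells (GCGR CHO-K1 or human primary hepatocytes) in HBSS/0.1% BSA/800 nM IBMX took compound dilutions for 30 min (final DMSO 1%), then EC50-level glucagon for 30 min at room temperature, then a 60 min lysis/detection step.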

glucagon receptor (GCGR) = target: T2, glucagon receptor (GCGR) (Homo sapiens, UniProt P47871); assay: I125-glucagon binding assay (competition, GCGR membrane fractions)
T2 construct: expressed in transfected cells; host or cells: CHO-K1 cells overexpressing GCGR (membrane fractions)
T2 sequence (P47871 26-477): as above
Outline: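 Competition of 0.0625 nM (final) I^125-glucagon for 30 min at 25° C, after 5 min compound preincubation, using 7.5 μg/well GCGR-overexpressing CHO-K1 membranes in 50 mM Tris pH 7.4, 0.5% BSA. Filtration onto PEI-coated GF/B, micro-beta counting, and non-linear regression gave IC50.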

[2] = inhibition of glucagon (EC50 concentration) induced cAMP production
[3] = competition with I125-glucagon 0.0625 nM, membrane fractions of GCGR overexpressed CHO-K1 cells

Row | Structure (SMILES) | IC50 cAMP [1] [nM] | IC50 (glucagon receptor (GCGR)) [µM] | IC50 cAMP [1, 2] [nM] | IC50 (glucagon receptor (GCGR); [3]) [µM] | IC50 (glucagon receptor (GCGR); uM) [µM]
1 | CCCOC[C@H](Cc1ccc(-c2c(C)cc(C)cc2C)cc1)Nc1ccc(C(=O)NCCC(=O)O)cc1 [Compound 19-16, (S)-3-(4-((1-propoxy-3-(2′,4′,6′-trimethyl-[1,1′-biphenyl]-4-yl)propan-2-yl)amino)benzamido)propanoic Acid] | 1729 | 3.7 | – | – | –
2 | CCCC[C@@H](COc1ccc(-c2ccc(C(F)(F)F)cc2F)nc1)Nc1ccc(C(=O)NCCC(=O)O)cc1 [Compound 10-8, (S)-3-(4-((1-((6-(2-fluoro-4-(trifluoromethyl)phenyl)pyridin-3-yl)oxy)hexan-2-yl)amino)benzamido)propanoic Acid] | – | – | 344 | 0.18 | –
3 | CCOC(=O)CCNC(=O)c1ccc(N[C@@H](Cc2cccc3ccccc23)C(=O)Nc2ccc(C(C)(C)C)cc2)cc1 [Compound 23-17, Ethyl (S)-3-(4-((1-((4-(tert-butyl)phenyl)amino)-3-(naphthalen-1-yl)-1-oxopropan-2-yl)amino)benzamido)propanoate] | 7400 | – | – | – | > 10
4 | CCCC[C@@H](COc1ccc(-c2nnc(C(F)(F)F)o2)c(F)c1)Nc1ccc(C(=O)NCCC(=O)O)cc1 [Compound 8-24, (S)-3-(4-((1-(3-fluoro-4-(5-(trifluoromethyl)-1,3,4-oxadiazol-2-yl)phenoxy)hexan-2-yl)amino)benzamido)propanoic Acid] | – | – | 2701 | 0.366 | –
5 | CC(C)[C@@H](COc1ccc(-c2cc3ccccc3o2)c(Cl)c1)Nc1ccc(C(=O)NCCS(=O)(=O)O)cc1 [Compound 3-18, (S)-2-(4-((1-(4-(benzofuran-2-yl)-3-chlorophenoxy)-3-methylbutan-2-yl)amino)benzamido)ethane-1-sulfonic Acid] | – | – | >30000 | 0.836 | –
6 | CCCC[C@@H](COc1ccc(-c2ccc(Cl)cc2Cl)cn1)Nc1ccc(C(=O)NCCC(=O)O)cc1 [Compound 15-24, (S)-3-(4-((1-((5-(2,4-dichlorophenyl)pyridin-2-yl)oxy)hexan-2-yl)amino)benzamido)propanoic Acid] | 293.9 | 0.301 | – | – | –
7 | CCOC(=O)CCNC(=O)c1ccc(N[C@@H](Cc2ccc(F)cc2)C(=O)Nc2ccc(-c3cc4ccccc4o3)cc2)cc1 [Compound 23-9, Ethyl (S)-3-(4-((1-((4-(benzofuran-2-yl)phenyl)amino)-3-(4-fluorophenyl)-1-oxopropan-2-yl)amino)benzamido)propanoate] | 2600 | 1.94 | – | – | –
8 | CC(C)[C@@H](COc1ccc(-c2ccc(C(F)(F)F)cc2F)nn1)Nc1ccc(C(=O)NCCC(=O)O)cc1 [Compound 17-9] | – | – | 11597 | 2.6 | –
9 | COc1cc(OC[C@@H](Nc2ccc(C(=O)NCCC(=O)O)cc2)C(C)C)ccc1-c1ccc(C(F)(F)F)cc1F [Compound 13-8, (S)-3-(4-((1-((2′-fluoro-2-methoxy-4′-(trifluoromethyl)-[1,1′-biphenyl]-4-yl)oxy)-3-methylbutan-2-yl)amino)benzamido)propanoic Acid] | – | – | 77.8 | 0.079 | –
10 | CC(C)C[C@@H](COc1ccc(-c2ccc(Cl)cc2Cl)c(F)c1)Nc1ccc(C(=O)NCCC(=O)O)cc1 [Compound 8-19, (S)-3-(4-((1-((2′,4′-dichloro-2-fluoro-[1,1′-biphenyl]-4-yl)oxy)-4-methylpentan-2-yl)amino)benzamido)propanoic Acid] | – | – | 182 | 0.101 | –
11 | Cc1cc(OC[C@@H](Nc2ccc(C(=O)NCCC(=O)O)cc2)C(C)C)cc(C)c1-c1ccc(C(C)(C)C)cc1 [Compound 2-5, (S)-3-(4-((1-((4′-(tert-butyl)-2,6-dimethyl-[1,1′-biphenyl]-4-yl)oxy)-3-methylbutan-2-yl)amino)benzamido)propanoic Acid] | – | – | 352 | 0.347 | –
12 | CC(C)COC[C@H](Cc1ccc(-c2cccc(C(F)(F)F)c2)cc1)Nc1ccc(C(=O)NCCC(=O)O)cc1 [Compound 19-28, (S)-3-(4-((1-isobutoxy-3-(3′-(trifluoromethyl)-[1,1′-biphenyl]-4-yl)propan-2-yl)amino)benzamido)propanoic Acid] | 726 | 0.872 | – | – | –
13 | COC(=O)CCNC(=O)c1ccc(N[C@H](COc2ccc(-c3nc4ccccc4s3)cc2)C(C)C)cc1 [Compound 1-31, Methyl (S)-3-(4-((1-(4-(benzo[d]thiazol-2-yl)phenoxy)-3-methylbutan-2-yl)amino)benzamido)propanoate] | – | – | 83 | 5.77 | –
14 | O=C(O)CCNC(=O)c1ccc(N[C@@H](Cc2ccc(F)cc2)C(=O)Nc2ccc(-c3cc4ccccc4o3)cc2)cc1 [Compound 23-10, (S)-3-(4-((1-((4-(benzofuran-2-yl)phenyl)amino)-3-(4-fluorophenyl)-1-oxopropan-2-yl)amino)benzamido)propanoic Acid] | 1900 | 0.061 | – | – | –
15 | CC[C@H](C)[C@@H](COc1nnc(-c2ccc(C(F)(F)F)cc2)o1)Nc1ccc(C(=O)NCCC(=O)O)cc1 [Compound 22-10, 3-(4-(((2S,3S)-3-methyl-1-((5-(4-(trifluoromethyl)phenyl)-1,3,4-oxadiazol-2-yl)oxy)pentan-2-yl)amino)benzamido)propanoic Acid] | >30000 | > 30 | – | – | –
16 | CC(C)[C@@H](COc1cc(F)c(-c2ccc(Cl)cc2Cl)c(F)c1)Nc1ccc(C(=O)NCCC(=O)O)cc1 [Compound 7-11, (S)-3-(4-((1-((2′,4′-dichloro-2,6-difluoro-[1,1′-biphenyl]-4-yl)oxy)-3-methylbutan-2-yl)amino)benzamido)propanoic Acid] | – | – | 209 | 0.074 | –
17 | CC(C)[C@@H](COc1ccc(-c2ccc(Cl)cc2Cl)cn1)Nc1ccc(C(=O)NCCC(=O)O)cc1 [Compound 15-17, (S)-3-(4-((1-((5-(2,4-dichlorophenyl)pyridin-2-yl)oxy)-3-methylbutan-2-yl)amino)benzamido)propanoic Acid] | 196 | 0.216 | – | – | –
18 | CC(C)[C@@H](COc1ccc(-c2ccc(C(F)(F)F)cc2F)cc1)Nc1ccc(C(=O)NCCC(=O)O)cc1 [Compound 1-25] | – | – | 90.4 | 0.044 | –
19 | Cc1cc(OC[C@@H](Cc2ccccc2)Nc2ccc(C(=O)NCCC(=O)O)cc2)cc(C)c1-c1ccc(OC(F)(F)F)cc1 [Compound 2-2] | – | – | 474.8 | 0.378 | –
20 | CC[C@H](C)[C@@H](COc1ccc(-c2nnc(C(C)(C)C)o2)cc1)Nc1ccc(C(=O)NCCC(=O)O)cn1 [Compound 4-4, 3-(6-(((2S,3S)-1-(4-(5-(tert-butyl)-1,3,4-oxadiazol-2-yl)phenoxy)-3-methylpentan-2-yl)amino)nicotinamido)propanoic Acid] | – | – | >30000 | 2.39 | –
21 | CC(C)[C@@H](COc1ccc(-c2ccc(C(F)(F)F)cc2)nc1)Nc1ccc(C(=O)NCCC(=O)O)cc1 [Compound 10-1, (S)-3-(4-((3-methyl-1-((6-(4-(trifluoromethyl)phenyl)pyridin-3-yl)oxy)butan-2-yl)amino)benzamido)propanoic Acid] | – | – | 1959 | 0.531 | –
22 | CC[C@H](C)[C@@H](COc1nnc(-c2ccc(Cl)cc2Cl)o1)Nc1ccc(C(=O)NCCC(=O)O)cc1 [Compound 22-11, 3-(4-(((2S,3S)-1-((5-(2,4-dichlorophenyl)-1,3,4-oxadiazol-2-yl)oxy)-3-methylpentan-2-yl)amino)benzamido)propanoic Acid] | >30000 | > 30 | – | – | –
23 | Cc1nc(OC[C@H](CC(C)C)Nc2ccc(C(=O)NCCC(=O)O)cc2)ccc1-c1ccc(C(F)(F)F)cc1Cl [Compound 18-7, (S)-3-(4-((1-((5-(2-chloro-4-(trifluoromethyl)phenyl)-6-methylpyridin-2-)oxy)-4-methylpentan-2-yl)amino)benzamido)propanoic Acid] | 80 | 0.074 | – | – | –
24 | CC(C)C[C@@H](Nc1ccc(C(=O)NCCC(=O)O)cc1)C(=O)Nc1ccc(-c2cc3ccccc3o2)cc1 [Compound 24-2, (R)-3-(4-((1-((4-(benzofuran-2-yl)phenyl)amino)-4-methyl-1-oxopentan-2-yl)amino)benzamido)propanoic Acid] | 598.6 | 0.311 | – | – | –
25 | CC(C)COC[C@H](Cc1ccc(-c2ccc(C(F)(F)F)cc2)cc1)Nc1ccc(C(=O)NCCC(=O)O)cc1 [Compound 19-34, (S)-3-(4-((1-isobutoxy-3-(4′-(trifluoromethyl)-[1,1′-biphenyl]-4-yl)propan-2-yl)amino)benzamido)propanoic Acid] | 487 | 0.38 | – | – | –
26 | CCOC(=O)CCNC(=O)c1ccc(N[C@H](COc2ccc(-c3nc4ccccc4s3)cc2)C(C)C)cc1 [Compound 1-30] | – | – | 1214 | 7.63 | –
27 | CCCC[C@@H](COc1nnc(-c2ccc(OC(F)(F)F)cc2)o1)Nc1ccc(C(=O)NCCC(=O)O)cc1 [Compound 22-2, (S)-3-(4-((1-((5-(4-(trifluoromethoxy)phenyl)-1,3,4-oxadiazol-2-yl)oxy)hexan-2-yl)amino)benzamido)propanoic Acid] | >30000 | 1.43 | – | – | –
28 | CC(C)[C@@H](COc1cc(Cl)c(-c2cc3ccccc3o2)cc1Cl)Nc1ccc(C(=O)NCCC(=O)O)cc1 [Compound 3-14, (S)-3-(4-((1-(4-(benzofuran-2-yl)-2,5-dichlorophenoxy)-3-methylbutan-2-yl)amino)benzamido)propanoic Acid] | – | – | 115.4 | 0.058 | –
